Assay results published in patent publication US12441775B2, “BCL-W polypeptides and mimetics for treating or preventing chemotherapy-induced peripheral neuropathy and hearing loss” (Dana-Farber Cancer Institute, Inc., priority 2016, dated 2025).

Key:
calpain = assay: Calpain protease activity luminescence assay; format: cell-based, rat; conditions: DRG neurons treated 48 hours with paclitaxel, normalized to DMSO
Experimental: Calpain protease activity luminescence assay. DRG neurons in mass cultures were treated with vehicle (0.1% DMSO for 48h), paclitaxel (30 nM, 600 nM, or 1.2 μM for 48 hours), or calcium chloride (3 mM for 24 hours). Cultures were harvested in 1× Passive Lysis Buffer (Promega). The resulting lysate was spun 10,000×g for 5 min at 4° C., and 50 μL supernatant was combined with 50 μL Calpain-Glo Reagent (Promega) in a 96 well plate. The plate was shaken briefly and incubated for 40 min in the dark; luminescence intensity was measured with a microplate reader and normalized to protein concentration.

Bcl2 = assay: qRT-PCR and Western blot of cell body and axon lysate after paclitaxel; format: cell-based, rat; conditions: 24 hours paclitaxel to axons; axons or cell bodies
Experimental: (§1) Cell culture. Compartmented chamber (Campenot) cultures were prepared as described (see, e.g., Fenstermacher et al., Springer Protocols: Neuromethods, 103:105-124 (2015)), with modifications. Briefly, DRGs from embryonic day 15 (E15) rats of either sex were dissected and trypsinized. DRGs (1.2×10^5 cells) were plated in the center compartment of a Teflon divider (Camp10, Tyler Research; Campenot, 1982) affixed to a p35 culture dish coated with growth factor reduced Matrigel basement membrane (BD Biosciences) 1:45 in DMEM. Cultures were maintained in media consisting of Neurobasal (Invitrogen) with 2% B27 supplement (Invitrogen), 1% penicillin-streptomycin, 1% GlutaMAX (Life Technologies), 0.08% glucose, and 0.3 μM cytosine arabinoside (AraC) at 37° C., 7.5% CO2; BDNF+NGF (PeproTech) were added to the cell body compartment at a concentration of 10 ng/ml and to the axon compartment at a concentration of 100 ng/ml for 2d. On day 3, media was replaced and the AraC was omitted. On day 5, neurotrophins were removed from the cell body compartment and reduced to 1 ng/ml in the axon compartments for 3-5 days. For paclitaxel treatment experiments, 30 μM paclitaxel (Sigma-Aldrich) or vehicle control (0.1% DMSO) was added to either cell body or distal axon compartments on day 7 for 24 hours. For calpain inhibition experiments, 20 μM calpain inhibitor III (VWR) and paclitaxel were added simultaneously to distal axon compartment.
(§2) Western blotting. […] Using NIH ImageJ software, protein levels were quantified and levels of protein were normalized to GAPDH.
(§3) Quantitative reverse transcription-PCR. […] Quantitative real-time RT-PCR was performed using Taqman Gene expression assays (Applied Biosystems) to assess the expression of bclw (Rn00821025_g1), bcl2 (Rn99999125_m1), and bclxL (Rn00580568_g1). […]

Bclw = assay: as above; format: cell-based, rat; conditions: 24 hours paclitaxel to axons; axons vs cell bodies
Experimental: as §1, §2, §3

BclxL = assay: as above; format: cell-based, rat; conditions: 24 hours paclitaxel to axons; axons or cell bodies
Experimental: as §1, §2, §3

bclw+/+ and bclw−/− mice = assay: Noxious thermal sensation threshold, 50° C. hot-plate; format: in vivo, mouse; conditions: paclitaxel 4 mg/kg every other day for 8 days
Experimental: (§4) Paclitaxel treatment and behavioral testing. 2 month old age-matched bclw−/− and bclw+/+ mice (17-30 g) of either sex were injected intraperitoneally (IP) with 4 mg/kg paclitaxel (Bristol-Myers Squibb) every other day for 8 days (4 total injections). Paclitaxel was prepared as 1 part 6 mg/ml paclitaxel stock solution diluted in vehicle (1:1 v/v Cremophor EL [EMD Millipore] and dehydrated ethanol) and 2 parts sterile saline and injected at 10 μl/g. Control mice were injected with 1 part vehicle and 2 parts saline. […] For three days prior to the baseline testing, mice were weighed, trained on an automated RotaRod apparatus (4 rpm for 1 min without falling), and habituated in von Frey cages. The next two days, baseline behavioral performance was assessed and averaged. The first paclitaxel injection was given three days later, and mice were weighed and behaviorally tested 10 days after the final injection. To assay motor function, mice were placed on the RotaRod with a ramp of 4-40 rpm and 0.4 rpm/sec acceleration, and latency to fall was measured. […] Withdrawal threshold was determined to be the applied force at which the animal withdrew the stimulated paw on at least 2 of 10 applications. […] Mouse behavior was assessed by an experimenter blind to genotype and condition.

mice [1] = assay: Accelerating RotaRod motor function test; format: in vivo, mouse; conditions: paclitaxel-treated mice, 4 mg/kg every other day for 8 days
Experimental: as §4

mice [2] = assay: Epidermal footpad innervation (Tuj1-positive intraepidermal nerve fibers); format: in vivo, mouse
Experimental: as §4
Epidermal footpad innervation. […] Images were acquired and quantified in NIH ImageJ by an experimenter blind to condition.

thermal pain sensitivity (hot-plate) (bclw+/+ and bclw−/− mice; bclw+/+ mice): mild thermal hyperalgesia | thermal pain sensitivity (hot-plate) (bclw+/+ and bclw−/− mice; bclw−/− mice): more severe thermal pain sensitivity
SMILES: CC(=O)O[C@H]1C(=O)[C@@]2(C)[C@H]([C@H](OC(=O)c3ccccc3)[C@]3(O)C[C@H](OC(=O)[C@H](O)[C@@H](NC(=O)c4ccccc4)c4ccccc4)C(C)=C1C3(C)C)[C@]1(OC(C)=O)CO[C@@H]1C[C@@H]2O [paclitaxel]
calpain activity (luminescence) (calpain): increased calpain activity in a dose-dependent manner | Bcl2 mRNA or protein (Bcl2): did not alter | Bclw mRNA and protein levels (Bclw): reduced Bclw mRNA and protein levels selectively in axons and not in cell bodies | BclxL mRNA or protein (BclxL): did not alter | motor function (latency to fall) (mice [1]): normal motor function | intraepidermal nerve fiber number of the hindpaw (mice [2]; bclw−/− compared to bclw+/+ mice, thick and thin skin): greater reduction in intraepidermal nerve fiber number | thick skin epidermal innervation (mice [2]; paclitaxel-treated compared with control mice (Example 12)): decreased thick skin epidermal innervation
